From patent US4921850A, “3-propenylcephem derivative” (Eisai Co., Ltd., priority 1986, dated 1990)
Values after ≈ are worked out from the molar mass of the structure shown.

Experiments:
Assay in all cases: Anti-bacterial activity (MIC), agar dilution
Assay type in all cases: cell-based
[1] = test system: Staph. aureus 209-P; details: Staphylococcus aureus, 209P, 18 h, Staph. aureus 209-P; agar dilution, about 10^6 CFU/ml, 18 hours, 37° C.; read-out: MIC
Protocol: (§1) MIC (μg/ml) were determined by an agar dilution method [Chemotherapy (Japan), 29, 76-79, 1981]. Overnight cultures of the bacterial strains in Mueller-Hinton broth were diluted to final concentration of about 10^6 CFU/ml, and 5 μl of each bacterial suspension was spotted onto Mueller-Hinton agar plates that contained twofold serial dilutions of antibiotics. MICs were measured after incubation for 18 hours at 37° C.

[2] = test system: Escher. coli NIHJ; details: Escherichia coli, 18 h, Escher. coli NIHJ; agar dilution, about 10^6 CFU/ml, 18 hours, 37° C.; read-out: MIC
Protocol: as §1

[3] = test system: Ser. marcescens ES-75; details: Serratia marcescens, ES75, 18 h, Ser. marcescens ES-75; agar dilution, about 10^6 CFU/ml, 18 hours, 37° C.; read-out: MIC
Protocol: as §1

[4] = test system: Kleb. pneumoniae EK-6; details: Klebsiella pneumoniae, EK6, 18 h, Kleb. pneumoniae EK-6; agar dilution, about 10^6 CFU/ml, 18 hours, 37° C.; read-out: MIC
Protocol: as §1

[5] = test system: Morganella morganii EP-14; details: Morganella morganii, EP14, 18 h, about 10^6 CFU/ml, 37° C., read-out: MIC
Protocol: as §1

[6] = test system: Pseud. aeruginosa EP-01; details: Pseudomonas aeruginosa, EP01, 18 h, Pseud. aeruginosa EP-01; agar dilution, about 10^6 CFU/ml, 18 hours, 37° C.; read-out: MIC
Protocol: as §1

Row | SMILES | MIC [1] [µg/mL] | MIC [2] [µg/mL] | MIC [3] [µg/mL] | MIC [4] [µg/mL] | MIC [5] [µg/mL] | MIC [6] [µg/mL]
1 | CC(=N)N1CC[N+](C)(C/C=C/C2=C(C(=O)[O-])N3C(=O)[C@@H](NC(=O)/C(=N\OCF)c4nsc(N)n4)[C@H]3SC2)CC1 [Example 26] | 0.2 (≈ 0.344 µM) | 0.1 (≈ 0.172 µM) | 0.4 (≈ 0.688 µM) | 0.1 (≈ 0.172 µM) | 0.1 (≈ 0.172 µM) | 0.8 (≈ 1.38 µM)
2 | Nc1nc(/C(=N/OCF)C(=O)N[C@@H]2C(=O)N3C(C(=O)[O-])=C(/C=C/C[N+]4(CCO)CCN(CCO)CC4)CS[C@H]23)ns1 [Example 27] | 0.4 (≈ 0.651 µM) | 0.05 (≈ 0.0813 µM) | 0.1 (≈ 0.163 µM) | ≤ 0.025 | 0.05 (≈ 0.0813 µM) | 1.56 (≈ 2.54 µM)
3 | NC(=O)N1CC[N+](C/C=C/C2=C(C(=O)[O-])N3C(=O)[C@@H](NC(=O)/C(=N\OCF)c4nsc(N)n4)[C@H]3SC2)(CCO)CC1 [Example 28] | 0.4 (≈ 0.652 µM) | 0.05 (≈ 0.0815 µM) | 0.2 (≈ 0.326 µM) | 0.05 (≈ 0.0815 µM) | 0.05 (≈ 0.0815 µM) | 1.56 (≈ 2.54 µM)
4 | Nc1nc(/C(=N/OCF)C(=O)N[C@@H]2C(=O)N3C(C(=O)[O-])=C(/C=C/C[N+]4(CCO)CCN(S(N)(=O)=O)CC4)CS[C@H]23)ns1 [Example 29] | 0.4 (≈ 0.616 µM) | ≤ 0.025 | 0.1 (≈ 0.154 µM) | ≤ 0.025 | ≤ 0.025 | 0.8 (≈ 1.23 µM)
5 | NC(=O)N1CC[N+](C/C=C/C2=C(C(=O)[O-])N3C(=O)[C@@H](NC(=O)/C(=N\OCF)c4nsc(N)n4)[C@H]3SC2)(CC(O)CO)CC1 (stereo partly drawn) [Example 30] | 0.4 (≈ 0.621 µM) | 0.05 (≈ 0.0777 µM) | 0.2 (≈ 0.311 µM) | 0.05 (≈ 0.0777 µM) | 0.05 (≈ 0.0777 µM) | 1.56 (≈ 2.42 µM)
6 | NC(=O)C[N+]1(C/C=C/C2=C(C(=O)[O-])N3C(=O)[C@@H](NC(=O)/C(=N\OCF)c4nsc(N)n4)[C@H]3SC2)CCN(C(N)=O)CC1 [Example 31] | 0.4 (≈ 0.638 µM) | 0.05 (≈ 0.0798 µM) | 0.1 (≈ 0.16 µM) | ≤ 0.025 | ≤ 0.025 | 1.56 (≈ 2.49 µM)
7 | NC(=O)NCC[N+]1(C/C=C/C2=C(C(=O)[O-])N3C(=O)[C@@H](NC(=O)/C(=N\OCF)c4nsc(N)n4)[C@H]3SC2)CCN(C(N)=O)CC1 [Example 32] | 0.2 (≈ 0.305 µM) | ≤ 0.025 | 0.05 (≈ 0.0763 µM) | ≤ 0.025 | ≤ 0.025 | 1.56 (≈ 2.38 µM)
8 | NC(=O)C[N+]1(C/C=C/C2=C(C(=O)[O-])N3C(=O)[C@@H](NC(=O)/C(=N\OCF)c4nsc(N)n4)[C@H]3SC2)CCOCC1 [Example 35] | 0.4 (≈ 0.684 µM) | 0.05 (≈ 0.0855 µM) | 0.1 (≈ 0.171 µM) | ≤ 0.025 | 0.05 (≈ 0.0855 µM) | 0.8 (≈ 1.37 µM)
9 | NC(=O)NCC[N+]1(C/C=C/C2=C(C(=O)[O-])N3C(=O)[C@@H](NC(=O)/C(=N\OCF)c4nsc(N)n4)[C@H]3SC2)CCOCC1 [Example 36] | 0.2 (≈ 0.326 µM) | 0.05 (≈ 0.0815 µM) | 0.1 (≈ 0.163 µM) | ≤ 0.025 | 0.05 (≈ 0.0815 µM) | 1.56 (≈ 2.54 µM)
10 | Nc1nc(/C(=N/OCF)C(=O)N[C@@H]2C(=O)N3C(C(=O)[O-])=C(/C=C/C[N+]4(CCO)CCOCC4)CS[C@H]23)ns1 [Example 37] | 0.2 (≈ 0.35 µM) | 0.05 (≈ 0.0875 µM) | 0.1 (≈ 0.175 µM) | ≤ 0.025 | 0.05 (≈ 0.0875 µM) | 1.56 (≈ 2.73 µM)
11 | Nc1nc(/C(=N/OCF)C(=O)N[C@@H]2C(=O)N3C(C(=O)[O-])=C(/C=C/C[N+]4(CC(O)CO)CCOCC4)CS[C@H]23)ns1 (stereo partly drawn) [Example 38] | 0.4 (≈ 0.665 µM) | 0.1 (≈ 0.166 µM) | 0.2 (≈ 0.332 µM) | 0.05 (≈ 0.0831 µM) | 0.1 (≈ 0.166 µM) | 1.56 (≈ 2.59 µM)
12 | CC(O)C[N+]1(C/C=C/C2=C(C(=O)[O-])N3C(=O)[C@@H](NC(=O)/C(=N\OCF)c4nsc(N)n4)[C@H]3SC2)CCOCC1 (stereo partly drawn) [Example 39] | 0.2 (≈ 0.342 µM) | 0.05 (≈ 0.0854 µM) | 0.1 (≈ 0.171 µM) | ≤ 0.025 | 0.05 (≈ 0.0854 µM) | 1.56 (≈ 2.66 µM)
13 | NC(=O)C[N+]1(C/C=C/C2=C(C(=O)[O-])N3C(=O)[C@@H](NC(=O)/C(=N\OCF)c4nsc(N)n4)[C@H]3SC2)CCC(C(N)=O)CC1 (stereo partly drawn) [Example 40] | 0.4 (≈ 0.639 µM) | ≤ 0.025 | ≤ 0.025 | ≤ 0.025 | ≤ 0.025 | 0.8 (≈ 1.28 µM)
